Here are results for nine compounds from patent US9018197B2, “Tetradecahydro-1H-cyclopenta[a]phenanthrene compounds, compositions, and related methods of use” (Suzhou Neupharma Co. Ltd., priority 2010, dated 2015).

SMILES strings stand for the structures.

The test system of one assay is Bcap-37 cells. Put plainly: Inhibition of cell growth in tumor cells, MTT assay, Bcap-37 cells. It counts as cell-based. Conditions: Homo sapiens, Bcap37, 72 h compound exposure. How it is done: (§1) Inhibition of cell growth by compounds was measured using MTT assay (Mosmann, T., Journal of Immunological Methods, 1983, 65, 55-63). Tumor cell lines were purchased from ATCC (American Type Culture Collection, Manassas, Va.). All cell lines were maintained in RPMI 1640 (Hyclone) supplemented with 10% fetal bovine serum (FBS, Hyclone), glutamine (2 mM, Hyclone), and antibiotics (penicillin 100 U/mL and streptomycin 50 μg/mL) at 37° C. in a humidified atmosphere of 5% CO2 in air. Taxol (positive control, Sigma) and compounds were dissolved in DMSO (Sigma), and the final concentration of DMSO in the medium was 1%. Tumor cells were plated in 96-well plates at densities from 4000 cells/well of a 96-well plate and allowed to adhere/grow for 24 h. They were then treated with various concentrations of drug for 72 h. 3-(4,5-Dimethylthiazol-2-yl)-2,5-diphenyltetrazolium bromide (MTT, Sigma) was used to determine the number of viable cells at the time of compound addition and the number of cells remaining after 72 h compound exposure. The number of cells remaining after 72 h was compared to the number of viable cells at the time of compound addition by measuring the absorbance at 570 nm, allowing for the calculation of growth inhibition.
(§2) All concentrations of compounds were tested in triplicate and controls were averaged over 4 wells. IC50 was calculated by plotting the concentration of compound vs the percentage of inhibition in treated wells using GraphPad Prism 5.

The subject of another assay is A549 cells. As to the kind of experiment: Inhibition of cell growth in tumor cells, MTT assay, A549 cells. Format: cell-based. Conditions: Homo sapiens, 72 h compound exposure. How it is done:
as §1, §2

Take `C[C@]12CC[C@H](OC(=O)NCCN3CCCC3)C[C@H]1CC[C@H]1C3=CC[C@H](c4ccc(=O)oc4)[C@@]3(C)CC[C@@H]12` [(3S,5R,8R,9S,10S,13R,17S)-10,13-dimethyl-17-(2-oxo-2H-pyran-5-yl)-2,3,4,5,6,7,8,9,10,11,12,13,16,17-tetradecahydro-1H-cyclopenta[a]phenanthren-3-yl 2-(pyrrolidin-1-yl)ethylcarbamate]: the results for the 50% inhibitory concentration (IC50) with Bcap-37 cells and with A549 cells were 168 nM and 217 nM, respectively.

As to `C[C@]12CC[C@H](OC(=O)NCCN3CCOCC3)C[C@H]1CC[C@H]1C3=CC[C@H](c4ccc(=O)oc4)[C@@]3(C)CC[C@@H]12` [(3S,5R,8R,9S,10S,13R,17S)-10,13-dimethyl-17-(2-oxo-2H-pyran-5-yl)-2,3,4,5,6,7,8,9,10,11,12,13,16,17-tetradecahydro-1H-cyclopenta[a]phenanthren-3-yl 2-morpholinoethylcarbamate], the IC50 is 192 nM in the assay on Bcap-37 cells and 54.8 nM in the assay on A549 cells.

As for `C[C@]12CC[C@H](OC(=O)N3CCNCC3)C[C@H]1CC[C@H]1C3=CC[C@H](c4ccc(=O)oc4)[C@@]3(C)CC[C@@H]12` [(3S,5R,8R,9S,10S,13R,17S)-10,13-dimethyl-17-(2-oxo-2H-pyran-5-yl)-2,3,4,5,6,7,8,9,10,11,12,13,16,17-tetradecahydro-1H-cyclopenta[a]phenanthren-3-ylpiperazine-1-carboxylate], the IC50 in the assay on Bcap-37 cells is 137 nM; in the assay on A549 cells, 90.2 nM.

For `CC(C)[C@@H](N)C(=O)O[C@H]1CC[C@@]2(C)[C@H](CC[C@H]3C4=CC[C@H](c5ccc(=O)oc5)[C@@]4(C)CC[C@@H]32)C1` [(R)-((3S,5R,8R,9S,10S,13R,17S)-10,13-dimethyl-17-(2-oxo-2H-pyran-5-yl)-2,3,4,5,6,7,8,9,10,11,12,13,16,17-tetradecahydro-1H-cyclopenta[a]phenanthren-3-yl) 2-amino-3-methylbutanoate], the IC50 in the assay on Bcap-37 cells came out at 155 nM; in the assay with A549 cells, 171 nM.

`CC(C)C[C@@H](N)C(=O)O[C@H]1CC[C@@]2(C)[C@H](CC[C@H]3C4=CC[C@H](c5ccc(=O)oc5)[C@@]4(C)CC[C@@H]32)C1` [(R)-((3S,5R,8R,9S,10S,13R,17S)-10,13-dimethyl-17-(2-oxo-2H-pyran-5-yl)-2,3,4,5,6,7,8,9,10,11,12,13,16,17-tetradecahydro-1H-cyclopenta[a]phenanthren-3-yl) 2-amino-4-methylpentanoate] came in with a concentration for half-maximal inhibition (IC50) in the assay with Bcap-37 cells of 376 nM.

For `C[C@@H](N)C(=O)O[C@H]1CC[C@@]2(C)[C@H](CC[C@H]3C4=CC[C@H](c5ccc(=O)oc5)[C@@]4(C)CC[C@@H]32)C1` [(R)-((3S,5R,8R,9S,10S,13R,17S)-10,13-dimethyl-17-(2-oxo-2H-pyran-5-yl)-2,3,4,5,6,7,8,9,10,11,12,13,16,17-tetradecahydro-1H-cyclopenta[a]phenanthren-3-yl) 2-aminopropanoate], the figures for the half-maximal inhibitory concentration (IC50) with Bcap-37 cells and in the assay with A549 cells were 161 nM and 106 nM, respectively.

On to `CC(C)[C@H](N)C(=O)O[C@H]1CC[C@@]2(C)[C@H](CC[C@H]3C4=CC[C@H](c5ccc(=O)oc5)[C@@]4(C)CC[C@@H]32)C1` [(S)-((3S,5R,8R,9S,10S,13R,17S)-10,13-dimethyl-17-(2-oxo-2H-pyran-5-yl)-2,3,4,5,6,7,8,9,10,11,12,13,16,17-tetradecahydro-1H-cyclopenta[a]phenanthren-3-yl) 2-amino-3-methylbutanoate], for which inhibition in the assay with Bcap-37 cells was half-maximal at 444 nM (IC50). That is a sub-micromolar value.

With `CC(C)C[C@H](N)C(=O)O[C@H]1CC[C@@]2(C)[C@H](CC[C@H]3C4=CC[C@H](c5ccc(=O)oc5)[C@@]4(C)CC[C@@H]32)C1` [(S)-((3S,5R,8R,9S,10S,13R,17S)-10,13-dimethyl-17-(2-oxo-2H-pyran-5-yl)-2,3,4,5,6,7,8,9,10,11,12,13,16,17-tetradecahydro-1H-cyclopenta[a]phenanthren-3-yl) 2-amino-4-methylpentanoate], half-maximal inhibition in the assay on A549 cells (IC50) was put at 229 nM. That is a sub-micromolar value.

Regarding `C[C@H](N)C(=O)O[C@H]1CC[C@@]2(C)[C@H](CC[C@H]3C4=CC[C@H](c5ccc(=O)oc5)[C@@]4(C)CC[C@@H]32)C1` [(S)-((3S,5R,8R,9S,10S,13R,17S)-10,13-dimethyl-17-(2-oxo-2H-pyran-5-yl)-2,3,4,5,6,7,8,9,10,11,12,13,16,17-tetradecahydro-1H-cyclopenta[a]phenanthren-3-yl) 2-aminopropanoate], in the assay with A549 cells, the IC50 was 112 nM.
